In patent publication US10988459B2 (priority 2015, dated 2021):

Target: human RIP1 kinase domain (2-375) (Homo sapiens (Human), UniProt Q13546)
Assay: biochemical
Format: biochemical
Details: human RIP1 kinase domain (2-375), 50 uM ATP, 2 hours incubation, Transcreener ADP assay; read-out: RIP1 Ki
Procedure, shortened: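 50 nM purified kinase domain from baculovirus-infected insect cells, incubated 2 h with compound in 50 mM Hepes pH 7.5, 30 mM MgCl2, 1 mM DTT, 50 uM ATP, 0.002% Brij-35, 0.5% DMSO. ADP formation read by Transcreener FP at 633 nm excitation. Ki^app fitted with the Morrison tight-binding equation.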

Chain of human RIP1 kinase domain (2-375) (Q13546 2-375): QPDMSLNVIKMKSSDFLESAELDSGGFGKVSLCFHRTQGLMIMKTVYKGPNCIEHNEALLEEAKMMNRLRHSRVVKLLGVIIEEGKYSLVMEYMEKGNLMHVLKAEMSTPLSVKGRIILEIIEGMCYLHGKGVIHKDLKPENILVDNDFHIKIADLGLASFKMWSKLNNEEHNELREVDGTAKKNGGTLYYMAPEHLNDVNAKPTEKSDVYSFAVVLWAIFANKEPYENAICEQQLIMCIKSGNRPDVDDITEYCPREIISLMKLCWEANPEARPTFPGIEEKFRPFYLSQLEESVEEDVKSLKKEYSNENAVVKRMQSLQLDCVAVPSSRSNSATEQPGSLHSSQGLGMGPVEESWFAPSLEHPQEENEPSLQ

Row | SMILES | Ki [nM]
1 | CN1C(=O)[C@@H](NC(=O)c2cn(Cc3ccc(F)c(F)c3)cn2)COc2c1cnn2C [Example 183, (S)-1-(3,4-difluorobenzyl)-N-(1,4-dimethyl-5-oxo-4,5,6,7-tetrahydro-1H-pyrazolo[3,4-b][1,4]oxazepin-6-yl)-1H-imidazole-4-carboxamide] | 1600
2 | CN1C(=O)[C@@H](NC(=O)c2n[nH]c3c2CC2(CC3)CC2(F)F)COc2ccccc21 (stereo partly drawn) [Example 189, 2,2-difluoro-N—((S)-5-methyl-4-oxo-2,3,4,5-tetrahydrobenzo[b][1,4]oxazepin-3-yl)-1′,4′,6′,7′-tetrahydrospiro[cyclopropane-1,5′-indazole]-3′-carboxamide] | 260
3 | CN1C(=O)[C@@H](NC(=O)c2nnn3ccc(C(F)(F)F)cc23)COc2ccccc21 [Example 191, (S)—N-(5-methyl-4-oxo-2,3,4,5-tetrahydrobenzo[b][1,4]oxazepin-3-yl)-5-(trifluoromethyl)-[1,2,3]triazolo[1,5-a]pyridine-3-carboxamide] | 22
4 | CN1C(=O)[C@@H](NC(=O)c2nnn3c2CC(C(F)(F)F)CC3)COc2ccccc21 (stereo partly drawn) [Example 192, N—((S)-5-methyl-4-oxo-2,3,4,5-tetrahydrobenzo[b][1,4]oxazepin-3-yl)-5-(trifluoromethyl)-4,5,6,7-tetrahydro-[1,2,3]triazolo[1,5-a]pyridine-3-carboxamide] | 105
5 | CN1C(=O)C(NC(=O)c2ncn(Cc3ccccc3)n2)CCn2ccnc21 (stereo not shown) [Example 195, 1-benzyl-N-(9-methyl-8-oxo-6,7,8,9-tetrahydro-5H-imidazo[1,2-a][1,3]diazepin-7-yl)-1H-1,2,4-triazole-3-carboxamide] | 123
6 | O=C(NC1CCn2ncc3c2N(CCO3)C1=O)c1nnc(Cc2ccccc2)[nH]1 (stereo not shown) [Example 199, 5-benzyl-N-(6-oxo-4,5,6,7,8,9-hexahydro-3-oxa-1,5a,9a-triazabenzo[cd]azulen-7-yl)-4H-1,2,4-triazole-3-carboxamide] | 766
7 | CN1C(=O)[C@@H](NC(=O)c2nnc3cnc(C(F)(F)F)cn23)COc2ccccc21 [Example 200, (S)—N-(5-methyl-4-oxo-2,3,4,5-tetrahydrobenzo[b][1,4]oxazepin-3-yl)-6-(trifluoromethyl)-[1,2,4]triazolo[4,3-a]pyrazine-3-carboxamide] | 1700
8 | CCC1(C)OCc2nnc(C(=O)N[C@H]3COc4ccccc4N(C)C3=O)cc21 (stereo partly drawn) [Example 201, 5-ethyl-5-methyl-N—((S)-5-methyl-4-oxo-2,3,4,5-tetrahydrobenzo[b][1,4]oxazepin-3-yl)-5,7-dihydrofuro[3,4-c]pyridazine-3-carboxamide] | 411
9 | CCn1ncc2cnc(C(=O)N[C@H]3COc4ccccc4N(C)C3=O)cc21 [Example 202, (S)-1-ethyl-N-(5-methyl-4-oxo-2,3,4,5-tetrahydrobenzo[b][1,4]oxazepin-3-yl)-1H-pyrazolo[4,3-c]pyridine-6-carboxamide] | 57.6
10 | CC(C)n1ncc2c1OC[C@H](NC(=O)c1ncn(Cc3ccccc3)n1)C(=O)N2 [Example 203, (S)-1-benzyl-N-(1-isopropyl-5-oxo-4,5,6,7-tetrahydro-1H-pyrazolo[3,4-b][1,4]oxazepin-6-yl)-1H-1,2,4-triazole-3-carboxamide] | 912
11 | CN1C(=O)[C@@H](NC(=O)c2n[nH]c3c2CC(c2ccc(F)cc2)OC3)COc2ccccc21 (stereo partly drawn) [Example 205, 5-(4-fluorophenyl)-N—((S)-5-methyl-4-oxo-2,3,4,5-tetrahydrobenzo[b][1,4]oxazepin-3-yl)-1,4,5,7-tetrahydropyrano[3,4-c]pyrazole-3-carboxamide] | 98.3
12 | CN1C(=O)[C@@H](NC(=O)c2n[nH]c3c2CC(c2ccc(F)c(F)c2)OC3)COc2ccccc21 (stereo partly drawn) [Example 206, 5-(3,4-difluorophenyl)-N—((S)-5-methyl-4-oxo-2,3,4,5-tetrahydrobenzo[b][1,4]oxazepin-3-yl)-1,4,5,7-tetrahydropyrano[3,4-c]pyrazole-3-carboxamide] | 131
13 | CN1C(=O)[C@@H](NC(=O)c2n[nH]c3c2CC(c2ccc(F)cc2F)OC3)COc2ccccc21 (stereo partly drawn) [Example 207, 5-(2,4-difluorophenyl)-N—((S)-5-methyl-4-oxo-2,3,4,5-tetrahydrobenzo[b][1,4]oxazepin-3-yl)-1,4,5,7-tetrahydropyrano[3,4-c]pyrazole-3-carboxamide] | 61.7
14 | CN1C(=O)[C@@H](NC(=O)c2n[nH]c3c2CC(CC(F)(F)F)OC3)COc2ccccc21 (stereo partly drawn) [Example 210, N—((S)-5-methyl-4-oxo-2,3,4,5-tetrahydrobenzo[b][1,4]oxazepin-3-yl)-5-(2,2,2-trifluoroethyl)-1,4,5,7-tetrahydropyrano[3,4-c]pyrazole-3-carboxamide] | 193
15 | CN1C(=O)[C@@H](NC(=O)c2n[nH]c3c2CC2(CCC2)OC3)COc2ccccc21 [Example 211, (S)—N-(5-methyl-4-oxo-2,3,4,5-tetrahydrobenzo[b][1,4]oxazepin-3-yl)-4′,7′-dihydro-1′H-spiro[cyclobutane-1,5′-pyrano[3,4-c]pyrazole]-3′-carboxamide] | 156
16 | CN1C(=O)[C@@H](NC(=O)c2n[nH]c3c2CC(C)(c2ccccc2)OC3)COc2ccccc21 (stereo partly drawn) [Example 212, 5-methyl-N—((S)-5-methyl-4-oxo-2,3,4,5-tetrahydrobenzo[b][1,4]oxazepin-3-yl)-5-phenyl-1,4,5,7-tetrahydropyrano[3,4-c]pyrazole-3-carboxamide] | 573
17 | CC(C)n1ncc2cnc(C(=O)N[C@H]3COc4ccccc4N(C)C3=O)cc21 [Example 213, (S)-1-isopropyl-N-(5-methyl-4-oxo-2,3,4,5-tetrahydrobenzo[b][1,4]oxazepin-3-yl)-1H-pyrazolo[4,3-c]pyridine-6-carboxamide] | 12.3
18 | Cc1ncn2c1N(C)C(=O)C(NC(=O)c1ncn(Cc3ccccc3)n1)CC2 (stereo not shown) [Example 215, 1-benzyl-N-(1,9-dimethyl-2-oxo-2,3,4,5-tetrahydro-1H-imidazo[1,5-a][1,3]diazepin-3-yl)-1H-1,2,4-triazole-3-carboxamide] | 106
19 | CN1C(=O)C(NC(=O)c2cn(Cc3ccccc3)nn2)CCn2nc(-c3ccccc3)cc21 (stereo not shown) [Example 216, 1-benzyl-N-(4-methyl-5-oxo-2-phenyl-5,6,7,8-tetrahydro-4H-pyrazolo[1,5-a][1,3]diazepin-6-yl)-1H-1,2,3-triazole-4-carboxamide] | 97.2

The remaining lines, values ahead:

Row | Ki [nM] | SMILES
20 | 135 | CCC1Cc2c(C(=O)N[C@H]3COc4ccccc4N(C)C3=O)n[nH]c2CO1 (stereo partly drawn) [Example 186, 5-ethyl-N—((S)-5-methyl-4-oxo-2,3,4,5-tetrahydrobenzo[b][1,4]oxazepin-3-yl)-1,4,5,7-tetrahydropyrano[3,4-c]pyrazole-3-carboxamide]
21 | 210 | CC1CCn2nnc(C(=O)N[C@H]3COc4ccccc4N(C)C3=O)c2C1 (stereo partly drawn) [Example 187, 5-methyl-N—((S)-5-methyl-4-oxo-2,3,4,5-tetrahydrobenzo[b][1,4]oxazepin-3-yl)-4,5,6,7-tetrahydro-[1,2,3]triazolo[1,5-a]pyridine-3-carboxamide]
22 | 4500 | CN1C(=O)[C@@H](NC(=O)c2n[nH]c3c2C[C@@H](C(F)(F)F)CC3)COc2c1cnn2C [Example 188, (S)—N—((S)-1,4-dimethyl-5-oxo-4,5,6,7-tetrahydro-1H-pyrazolo[3,4-b][1,4]oxazepin-6-yl)-5-(trifluoromethyl)-4,5,6,7-tetrahydro-1H-indazole-3-carboxamide]
23 | 262 | CC1CCn2cnc(C(=O)N[C@H]3COc4ccccc4N(C)C3=O)c2C1 (stereo partly shown) [Example 190]
24 | 57.5 | CN1C(=O)[C@@H](NC(=O)c2ncn3ccc(C(F)(F)F)nc23)COc2ccccc21 [Example 193, (S)—N-(5-methyl-4-oxo-2,3,4,5-tetrahydrobenzo[b][1,4]oxazepin-3-yl)-2-(trifluoromethyl)imidazo[1,5-a]pyrimidine-8-carboxamide]
25 | 167 | CCC1(C)Cc2c(C(=O)N[C@H]3COc4ccccc4N(C)C3=O)n[nH]c2CO1 (stereo partly drawn) [Example 194, 5-ethyl-5-methyl-N-((S)-5-methyl-4-oxo-2,3,4,5-tetrahydrobenzo[b][1,4]oxazepin-3-yl)-1,4,5,7-tetrahydropyrano[3,4-c]pyrazole-3-carboxamide]
26 | 341 | CN1C(=O)C(NC(=O)c2cn(Cc3ccccc3)nn2)CCn2ccnc21 (stereo not shown) [Example 196, 1-benzyl-N-(9-methyl-8-oxo-6,7,8,9-tetrahydro-5H-imidazo[1,2-a][1,3]diazepin-7-yl)-1H-1,2,3-triazole-4-carboxamide]
27 | 5100 | CC(C)n1ncc2c1OC[C@H](NC(=O)c1nnc(Cc3ccccc3)[nH]1)C(=O)N2 [Example 197, (S)-5-benzyl-N-(1-isopropyl-5-oxo-4,5,6,7-tetrahydro-1H-pyrazolo [3,4-b][1,4]oxazepin-6-yl)-4H-1,2,4-triazole-3-carboxamide]
28 | 232 | O=C(NC1CCn2ncc3c2N(CCO3)C1=O)c1ncn(Cc2ccccc2)n1 (stereo not shown) [Example 198, 1-benzyl-N-(6-oxo-4,5,6,7,8,9-hexahydro-3-oxa-1,5a,9a-triazabenzo[cd]azulen-7-yl)-1H-1,2,4-triazole-3-carboxamide]
29 | 84.3 | CN1C(=O)C(NC(=O)c2ncn(Cc3ccccc3)n2)CCn2cncc21 (stereo not shown) [Example 204, 1-benzyl-N-(1-methyl-2-oxo-2,3,4,5-tetrahydro-1H-imidazo[1,5-a][1,3]diazepin-3-yl)-1H-1,2,4-triazole-3-carboxamide]
30 | 120 | CN1C(=O)C(NC(=O)c2ncn(Cc3ccccc3)n2)CCn2nc(-c3ccccc3)cc21 (stereo not shown) [Example 208, 1-benzyl-N-(4-methyl-5-oxo-2-phenyl-5,6,7,8-tetrahydro-4H-pyrazolo[1,5-a][1,3]diazepin-6-yl)-1H-1,2,4-triazole-3-carboxamide]
31 | 75.6 | CN1C(=O)C(NC(=O)c2n[nH]c(Cc3ccccc3)n2)CCn2nc(-c3ccccc3)cc21 (stereo not shown) [Example 209, 5-benzyl-N-(4-methyl-5-oxo-2-phenyl-5,6,7,8-tetrahydro-4H-pyrazolo[1,5-a][1,3]diazepin-6-yl)-1H-1,2,4-triazole-3-carboxamide]
